This passage reports Drug metabolism and Km results from ChEMBL document CHEMBL3525899, “Identification of the cytochrome P450 and other enzymes involved in the in vitro oxidative metabolism of a novel antidepressant, Lu AA21004” (Drug Metab Dispos, 2012).

Structures are written as SMILES. A value given as a limit tells only on which side of the number the result lay.

The target of data set [1] is Cytochrome P450 2C9 (Homo sapiens, UniProt P11712). In words: Activity of human recombinant CYP2C9 expressed in microsomes isolated from human AHH-1 cells assessed as enzyme-mediated (3-methyl-4-(2-(piperazin-1-yl)phenylthio)phenyl)methanol formation at 8 to 50 uM after 120 mins by HPLC/MS-MS analysis in presence of NADPH regenerating system with NADP+. The data set is classed as ADME, cell-free. The conditions noted are these: 2 h.

Data set [2] has as its system Liver microsome. In words: Drug metabolism in pooled human liver microsomes assessed as formation of 4-(2-(2,4-dimethylphenylthio)phenyl)piperazin-1-ol after 30 mins by Michaelis-Menten plot analysis in presence of NADPH regenerating system with NADP+. Format: ADME. To be noted: 0.5 h, read-out: Km(app). Background: Liver microsomes are a subcellular fraction often used to study metabolism.

The test system of data set [3] is Liver microsome. In words: Drug metabolism in phenotyped human liver microsomes assessed as formation of 3-methyl-4-(2-(piperazin-1-yl)phenylthio)benzoic acid at 8 to 50 uM after 60 mins by HPLC/MS-MS analysis in presence of NADPH regenerating system with NADP+. Format: ADME. To be noted: 1 h.
Data set [4] deals with Cytochrome P450 3A4 (Homo sapiens, UniProt P08684). In words: Activity of human recombinant CYP3A4 expressed in microsomes isolated from human AHH-1 cells assessed as enzyme-mediated 3-(2,4-dimethylphenylthio)-4-(piperazin-1-yl)phenol formation at 8 to 50 uM after 120 mins by HPLC/MS-MS analysis in presence of NADPH regenerating system with NADP+. The data set is classed as ADME, cell-free. The conditions noted are these: 2 h.

The subject of data set [5] is Liver microsome. In words: Drug metabolism in pooled human liver microsomes assessed as formation of 1-(2-(2,4-dimethylphenylsulfinyl)phenyl)piperazine at 100 uM after 30 to 180 mins by HPLC/MS-MS analysis in presence of NADPH regenerating system with NADP+. The data set is classed as ADME.
Data set [6] relates to Liver microsome. In words: Drug metabolism in pooled human liver microsomes assessed as formation of 3-(2,4-dimethylphenylthio)-4-(piperazin-1-yl)phenol at 100 uM after 30 to 180 mins by HPLC/MS-MS analysis in presence of NADPH regenerating system with NADP+. Format: ADME.
Data set [7] relates to Liver microsome. In words: Drug metabolism in phenotyped human liver microsomes assessed as formation of 3-(2,4-dimethylphenylthio)-4-(piperazin-1-yl)phenol at 8 to 50 uM after 60 mins by HPLC/MS-MS analysis in presence of NADPH regenerating system with NADP+. The data set is classed as ADME. To be noted: 1 h.
In data set [8] the target is T1, Cytochrome P450 2B6 (Homo sapiens, UniProt P20813).
T1 sequence (P20813 whole entry): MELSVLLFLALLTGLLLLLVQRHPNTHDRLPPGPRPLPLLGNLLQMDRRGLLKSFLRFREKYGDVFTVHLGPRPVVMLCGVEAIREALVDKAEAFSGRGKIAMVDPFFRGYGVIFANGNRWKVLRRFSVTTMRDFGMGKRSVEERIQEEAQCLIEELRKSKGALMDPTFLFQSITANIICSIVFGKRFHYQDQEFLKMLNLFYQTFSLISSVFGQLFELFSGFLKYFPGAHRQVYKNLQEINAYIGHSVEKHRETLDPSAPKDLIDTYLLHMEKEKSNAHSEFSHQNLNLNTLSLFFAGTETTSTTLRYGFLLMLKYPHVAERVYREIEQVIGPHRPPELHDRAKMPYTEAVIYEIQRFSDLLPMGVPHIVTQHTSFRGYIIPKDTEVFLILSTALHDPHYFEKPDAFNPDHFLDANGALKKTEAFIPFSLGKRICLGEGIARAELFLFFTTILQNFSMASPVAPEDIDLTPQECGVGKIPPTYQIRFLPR
Kind of data set: Activity of human recombinant CYP2B6 expressed in microsomes isolated from human AHH-1 cells assessed as enzyme-mediated 1-(2-(2,4-dimethylphenylsulfinyl)phenyl)piperazine formation at 8 to 50 uM after 120 mins by HPLC/MS-MS analysis in presence of NADPH regenerating system with NADP+. Format: ADME, cell-free. To be noted: 2 h.

For data set [9], the system named is Liver microsome. In words: Drug metabolism in phenotyped human liver microsomes assessed as formation of 4-(2-(2,4-dimethylphenylthio)phenyl)piperazin-1-ol at 8 to 50 uM after 60 mins by HPLC/MS-MS analysis in presence of NADPH regenerating system with NADP+. Format: ADME. The conditions noted are these: 1 h.
Data set [10] deals with Liver microsome. Kind of data set: Drug metabolism in pooled human liver microsomes assessed as formation of 1-(2-(2,4-dimethylphenylsulfinyl)phenyl)piperazine after 30 mins by Michaelis-Menten plot analysis in presence of NADPH regenerating system with NADP+. Format: ADME. The conditions noted are these: 0.5 h, read-out: Km(app).
Data set [11] deals with T2, Cytochrome P450 2A6 (Homo sapiens, UniProt P11509).
T2 sequence (P11509 whole entry): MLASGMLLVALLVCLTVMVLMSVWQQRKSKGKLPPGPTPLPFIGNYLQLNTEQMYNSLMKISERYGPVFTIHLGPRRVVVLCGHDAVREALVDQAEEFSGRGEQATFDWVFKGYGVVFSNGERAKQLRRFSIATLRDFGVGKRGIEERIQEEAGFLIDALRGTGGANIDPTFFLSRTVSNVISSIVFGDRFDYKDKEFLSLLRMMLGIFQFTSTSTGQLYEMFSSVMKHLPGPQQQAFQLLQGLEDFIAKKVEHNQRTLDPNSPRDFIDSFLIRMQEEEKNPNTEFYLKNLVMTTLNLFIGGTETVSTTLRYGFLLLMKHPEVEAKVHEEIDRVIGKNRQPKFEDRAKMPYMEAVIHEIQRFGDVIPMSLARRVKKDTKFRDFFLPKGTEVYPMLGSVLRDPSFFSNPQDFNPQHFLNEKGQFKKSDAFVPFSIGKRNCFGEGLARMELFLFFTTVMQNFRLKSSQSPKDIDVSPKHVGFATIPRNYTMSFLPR
In words: Activity of human recombinant CYP2A6 expressed in microsomes isolated from human AHH-1 cells assessed as enzyme-mediated 1-(2-(2,4-dimethylphenylsulfinyl)phenyl)piperazine formation at 8 to 50 uM after 120 mins by HPLC/MS-MS analysis in presence of NADPH regenerating system with NADP+. To be noted: 2 h. Format: ADME, cell-free.

The target in data set [12] is Cytochrome P450 2E1 (Homo sapiens, UniProt P05181). In words: Activity of human recombinant CYP2E1 expressed in microsomes isolated from human AHH-1 cells assessed as enzyme-mediated 1-(2-(2,4-dimethylphenylsulfinyl)phenyl)piperazine formation at 8 to 50 uM after 120 mins by HPLC/MS-MS analysis in presence of NADPH regenerating system with NADP+. Format: ADME, cell-free. The conditions noted are these: 2 h.

Data set [13] deals with Liver microsome. In words: Drug metabolism in pooled human liver microsomes assessed as formation of 3-(2,4-dimethylphenylthio)-4-(piperazin-1-yl)phenol after 30 mins by Michaelis-Menten plot analysis in presence of NADPH regenerating system with NADP+. Format: ADME. To be noted: 0.5 h, read-out: Km(app).
Data set [14] has as its target Cytochrome P450 2D6 (Homo sapiens, UniProt P10635). In words: Activity of human recombinant CYP2D6 expressed in microsomes isolated from human AHH-1 cells assessed as enzyme-mediated (3-methyl-4-(2-(piperazin-1-yl)phenylthio)phenyl)methanol formation at 8 to 50 uM after 120 mins by HPLC/MS-MS analysis in presence of NADPH regenerating system with NADP+. The conditions noted are these: 2 h. The data set is classed as ADME, cell-free.

Cytochrome P450 2E1, sequence (P05181 whole entry): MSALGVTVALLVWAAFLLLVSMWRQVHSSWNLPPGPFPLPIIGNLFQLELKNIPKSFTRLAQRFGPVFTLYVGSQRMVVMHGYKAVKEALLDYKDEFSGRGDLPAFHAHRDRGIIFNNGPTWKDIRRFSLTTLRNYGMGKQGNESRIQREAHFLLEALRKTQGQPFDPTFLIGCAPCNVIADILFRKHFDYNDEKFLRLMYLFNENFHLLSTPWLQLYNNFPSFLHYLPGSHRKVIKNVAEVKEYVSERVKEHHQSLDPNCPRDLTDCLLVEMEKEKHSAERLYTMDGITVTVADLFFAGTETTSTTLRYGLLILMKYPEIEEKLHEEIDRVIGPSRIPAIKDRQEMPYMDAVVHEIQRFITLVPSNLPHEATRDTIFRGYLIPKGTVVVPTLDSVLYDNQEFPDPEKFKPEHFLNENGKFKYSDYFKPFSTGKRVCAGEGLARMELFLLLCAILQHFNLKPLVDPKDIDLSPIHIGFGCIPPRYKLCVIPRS
Cytochrome P450 2C9, sequence (P11712 whole entry): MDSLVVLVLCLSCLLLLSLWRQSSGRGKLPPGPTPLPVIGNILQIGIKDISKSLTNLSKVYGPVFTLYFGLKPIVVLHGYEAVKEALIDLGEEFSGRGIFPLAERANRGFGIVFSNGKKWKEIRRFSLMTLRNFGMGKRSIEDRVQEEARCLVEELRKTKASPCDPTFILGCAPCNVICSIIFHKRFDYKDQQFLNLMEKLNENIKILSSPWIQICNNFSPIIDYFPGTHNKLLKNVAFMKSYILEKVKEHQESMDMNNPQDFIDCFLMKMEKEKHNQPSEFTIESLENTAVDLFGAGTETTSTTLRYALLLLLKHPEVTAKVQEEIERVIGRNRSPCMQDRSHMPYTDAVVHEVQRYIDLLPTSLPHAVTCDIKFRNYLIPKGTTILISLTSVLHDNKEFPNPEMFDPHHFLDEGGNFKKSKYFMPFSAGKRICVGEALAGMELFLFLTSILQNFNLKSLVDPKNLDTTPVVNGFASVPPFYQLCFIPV
Cytochrome P450 2D6, sequence (P10635 whole entry): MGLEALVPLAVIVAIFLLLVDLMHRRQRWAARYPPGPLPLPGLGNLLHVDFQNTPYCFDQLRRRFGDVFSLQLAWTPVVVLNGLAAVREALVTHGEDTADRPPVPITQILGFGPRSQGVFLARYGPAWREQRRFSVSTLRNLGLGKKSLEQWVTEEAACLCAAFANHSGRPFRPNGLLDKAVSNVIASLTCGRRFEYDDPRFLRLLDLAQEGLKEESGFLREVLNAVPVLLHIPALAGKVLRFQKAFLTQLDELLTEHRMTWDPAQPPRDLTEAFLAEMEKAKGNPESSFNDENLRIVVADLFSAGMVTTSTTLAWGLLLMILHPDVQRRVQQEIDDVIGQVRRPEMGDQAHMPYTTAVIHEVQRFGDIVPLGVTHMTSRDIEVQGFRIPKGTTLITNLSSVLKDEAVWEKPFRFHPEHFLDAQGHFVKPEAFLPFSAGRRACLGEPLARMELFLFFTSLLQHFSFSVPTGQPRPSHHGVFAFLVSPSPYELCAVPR
Cytochrome P450 3A4, sequence (P08684 whole entry): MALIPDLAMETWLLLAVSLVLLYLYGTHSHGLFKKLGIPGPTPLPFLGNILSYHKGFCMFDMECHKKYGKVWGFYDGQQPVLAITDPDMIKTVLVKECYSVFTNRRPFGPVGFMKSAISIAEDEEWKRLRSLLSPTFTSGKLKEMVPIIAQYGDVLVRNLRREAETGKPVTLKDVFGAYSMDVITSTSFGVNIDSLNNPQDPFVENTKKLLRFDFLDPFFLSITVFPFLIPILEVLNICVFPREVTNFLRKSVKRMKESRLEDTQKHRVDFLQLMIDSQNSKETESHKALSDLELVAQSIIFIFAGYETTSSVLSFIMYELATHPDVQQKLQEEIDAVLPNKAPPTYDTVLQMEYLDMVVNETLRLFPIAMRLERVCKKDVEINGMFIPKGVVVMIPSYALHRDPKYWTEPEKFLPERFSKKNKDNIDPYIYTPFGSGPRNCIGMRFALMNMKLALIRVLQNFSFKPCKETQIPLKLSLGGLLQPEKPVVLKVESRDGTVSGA

As a reminder, the Km is the substrate concentration at which the rate is half of its maximum. Take `Br.Cc1ccc(Sc2ccccc2N2CCNCC2)c(C)c1` [VORTIOXETINE HYDROBROMIDE]: the Drug metabolism result in data set [1] was “metabolite_detected”; in data set [3], “metabolite_detected”; in data set [4], “metabolite_not_detected”; in [5] it was “metabolite_detected”; in data set [6], “metabolite_detected”; in data set [7] it was “metabolite_detected”. In addition, the Drug metabolism result in [8] is recorded as “metabolite_not_detected”; in [9], “metabolite_detected”; in data set [11] it was “metabolite_detected”; in data set [12], “metabolite_not_detected”; in [14] it was “metabolite_detected”. Besides, the results for the Km in data set [2], in data set [10] and in data set [13] were 300 µM, at least 208 µM and 323 µM, respectively.
